Read-outs that look alike come from different tables or passages of the source.
How the values were obtained:
[1] = Nerve conduction studies in two patients with grade 3 polyneuropathy; conditions: for MAP Amplitude Percent Decrement / MAP Amplitude Lowest on Taxol: Motor; for SAP Amplitude Percent Decrement / SAP Amplitude Lowest on Taxol: Sensory
Protocol: In two of these patients who developed clinical evidence of neuropathy, the studies were repeated on three occasions in case 1 and once in case 2. In all 12 patients, maximal motor and sensory conduction velocities and response amplitudes were recorded for the median or ulnar nerve in the upper limb and for the peroneal and sural nerves in the lower limb.

[2] = in vivo
Protocol: Patients with histologically proven epithelial ovarian cancer with bidimensionally measurable disease were candidates for the study.
All patients received subsequent cycles of therapy on the general medical oncology in-patient ward.
A G-CSF dose of 10 μg/kg/day was used. […] This was determined by checking WBC and platelet counts on a twice weekly basis.
All toxicities were graded according to the NCI-CTEP criteria, with the exception of peripheral neuropathy which was graded as described previously herein.
Dose limiting toxicity (DLT) was defined as any of the following criteria occurring in two of three patients treated at a given dose level: (1) reversible non-hematologic toxicity of at least grade 3; (2) irreversible non-hematologic toxicity of at least grade 2; or (3) the persistence of a nadir with an absolute granulocyte count of less than 500 cells/mm^3 or platelet count of less than 25,000/mm^3 for five days or more.

[3] = Source text: (§1) A total of 47 patients were included in this study. All patients had recurrent advanced stage epithelial ovarian cancer confirmed on histologic review at the Laboratory of Pathology, National Cancer Institute (NCI). Borderline, mixed, and germ cell histologies were excluded.
Pretreatment evaluation consisted of a physical examination, laboratory studies with CA-125, radiographic evaluation by CT scan, baseline electromyogram with nerve conduction velocity studies (EMG/NCV), creatinine clearance, chest radiograph, and EKG. On-study staging was completed within two weeks of starting therapy. Physical examination and laboratory evaluations were repeated with every cycle, except for CBC which was evaluated twice weekly. Patients underwent restaging every two cycles (i.e., every 6 weeks), which included the repetition of any radiographic studies that were abnormal upon entry. EMG/NCV studies were repeated as indicated to determine the presence of any progressive neurologic toxicity.
The G-CSF was supplied to the Division of Cancer Treatment by Amgen, Inc. (Thousand Oaks, Calif.). This G-CSF administration continued until the absolute granulocyte count of the patient was greater than 1500/μl for two consecutive days after the nadir (i.e., the total count for the two days was at least 3000/μl ) or until the total white blood cell count was greater than 30,000/μl. Patients with responding disease or stable disease continued on the study and were reevaluated at two cycle intervals.
Patients manifesting second or third degree heart block had remaining cycles given in the intensive care unit with appropriate interventions. Antiemetics were given as needed.
More specifically, this was undertaken by increasing the dose of G-CSF administered on the next treatment cycle.
The particulars pertaining to the flexible G-CSF dosage regimen are as follows. […] The dose of G-CSF was reduced by 5 μg/kg/day if severe bone pain occurred at these higher G-CSF dosage levels, i.e., at levels greater than or equal to 10 μg/kg/day.

[4] = tested on: recurrent advanced stage epithelial ovarian cancer; experiment: Phase II dose intense taxol with G-CSF support: disease response and survival; assay type: in vivo, human
Source text: as §1
A complete response (CR) was defined as patients having a complete resolution of disease as determined by both physical and radiographic examination as well as normalization of CA-125 lasting at least 4 weeks. A partial response (PR) patient was defined as having a greater than 50% reduction in the sum of the products of bidimensional measurements of all sites of disease as determined by both physical and radiographic analysis which lasted at least 4 weeks, and wherein no development of new lesions was observed. A minor response (MR) patient was defined as having greater than 25% but less than 50% reduction in the sum of the products of the perpendicular diameters of all measurable lesions and wherein no new sites of disease were observed. A stable disease (SD) was defined as patients having less than a 25% increase or less than a 25% reduction in sum of the product of the perpendicular diameters of all measurable lesions in response to therapy, without development of new lesions, for at least 4 weeks. Progressive disease (PD) was defined as patients having an increase of at least 25% in the sum of the products of the perpendicular diameters of all measurable lesions and/or the development of new lesions.
CA-125 levels were followed in all patients but were not used to define a patient's response except in one situation.

[5] = tested on: ovarian cancer; experiment: Published studies of taxol without G-CSF: response rate; assay type: in vivo, human; conditions: 33 of 110 patients
Source text: This agent is derived from the bark of the Western Yew tree, taxus brevifolia (Chabner, PPO Update, 5 (9), 1-10 (1991); Rowinsky et al., J. Nat'Cancer Inst., 82, 1247-1259 (1990)).

[6] = in vivo; cited from earlier work
[7] = female, human, in vivo, 1 cycle
[8] = female, human, in vivo, 21 days (per cycle)
[9] = dose intense taxol with G-CSF, 44 assessable patients
[10] = dose intense taxol with G-CSF, 44 assessable patients, listed as taxol
[11] = nineteen patients treated until CR or progression

CC(=O)O[C@H]1C(=O)[C@@]2(C)[C@H]([C@H](OC(=O)c3ccccc3)[C@]3(O)C[C@H](OC(=O)[C@H](O)[C@@H](NC(=O)c4ccccc4)c4ccccc4)C(C)=C1C3(C)C)[C@]1(OC(C)=O)CO[C@@H]1C[C@@H]2O [Taxol, taxol]
MAP Amplitude Percent Decrement ([1]; Median nerve, case 2): None
MAP Amplitude Lowest on Taxol ([1]; Median nerve, case 2, control 10.5 mV): 10.8 mV
MAP Amplitude Percent Decrement ([1]; Peroneal nerve, case 1): 49%
MAP Amplitude Lowest on Taxol ([1]; Peroneal nerve, case 1, control 3.9 mV): 1.9 mV
MAP Amplitude Percent Decrement ([1]; Peroneal nerve, case 2): None
MAP Amplitude Lowest on Taxol ([1]; Peroneal nerve, case 2, control 2.7 mV): 2.7 mV
MAP Amplitude Percent Decrement ([1]; Ulnar nerve, case 1): None
MAP Amplitude Lowest on Taxol ([1]; Ulnar nerve, case 1, control 6.9 mV): 7.1 mV
SAP Amplitude Percent Decrement ([1]; Median nerve, case 2): 13%
SAP Amplitude Lowest on Taxol ([1]; Median nerve, case 2, control 69 μV): 60 μV
SAP Amplitude Percent Decrement ([1]; Sural nerve, case 1): 75%
SAP Amplitude Lowest on Taxol ([1]; Sural nerve, case 1, control 8 μV): 2 μV
SAP Amplitude Percent Decrement ([1]; Sural nerve, case 2): 44%
SAP Amplitude Lowest on Taxol ([1]; Sural nerve, case 2, control 32 μV): 18 μV
SAP Amplitude Percent Decrement ([1]; Ulnar nerve, case 1): 62%
SAP Amplitude Lowest on Taxol ([1]; Ulnar nerve, case 1, control 19 μV): 6 μV
Dose at which dose limiting toxicity (DLT) was reached ([2]; female, human): 300 mg/m2/21 days
Duration of granulocytopenia occurring in spite of G-CSF support ([2]; female, human): less than 5 days
Persistence of neurologic symptoms beyond the peak ([2]; female, human): 1 to 2 weeks
Persistence of symptoms of grade 3 neuropathy ([2]; female, human): up to 6 months
Time of nadir heart rate into therapy, range ([2]; female, human): 1 to 21 h
Mean nadir heart rate (±SEM) ([2]; female, human, 1 cycle): 60±11 bpm
Nadir heart rate, range ([2]; female, human, 1 cycle): 46-84 bpm
Number of individuals whose heart rate fell below 60 bpm ([2]; female, human, 1 cycle): 10
Mean nadir heart rate ([2]; female, human, 2 cycle): 61±8 bpm
Nadir heart rate, range ([2]; female, human, 2 cycle): 46-75 bpm
Number of individuals whose heart rate fell below 60 bpm ([2]; female, human, 2 cycle): 6
Alopecia and grade 1 to 2 myalgias observed [2]: all patients
Patients in whom mucositis was observed [2]: two
Patients with peripheral neuropathy of grade 3 [2]: three
Alopecia, Grade 1 & 2 ([3]; female, human, in vivo): 38 No. (%)
Bone Pain, Grade 3 & 4 ([3]; female, human, in vivo): 3 (6) No. (%)
Cardiac toxicity, Grade 1 & 2 ([3]; female, human, in vivo): 35 (74) No. (%)
Constitutional toxicity, Grade 1 & 2 ([3]; female, human, in vivo): 43 No. (%)
Constitutional toxicity, Grade 3 & 4 ([3]; female, human, in vivo): 4 (9) No. (%)
Diarrhea, Grade 1 & 2 ([3]; female, human, in vivo): 29 No. (%)
Diarrhea, Grade 3 & 4 ([3]; female, human, in vivo): 2 (4) No. (%)
Hematologic toxicity, Anemia, Grade 1 & 2 ([3]; female, human, in vivo): 17 (47) No. (%)
Hematologic toxicity, Anemia, Grade 3 & 4 ([3]; female, human, in vivo): 30 (47) No. (%)
Hematologic toxicity, Granulocytes, Grade 1 & 2 ([3]; female, human, in vivo): 1 (2) No. (%)
Hematologic toxicity, Granulocytes, Grade 3 & 4 ([3]; female, human, in vivo): 46 (98) No. (%)
Hematologic toxicity, Platelets, Grade 1 & 2 ([3]; female, human, in vivo): 24 (51) No. (%)
Hematologic toxicity, Platelets, Grade 3 & 4 ([3]; female, human, in vivo): 19 (40) No. (%)
Hypersensitivity Reactions, Grade 1 & 2 ([3]; female, human, in vivo): 31 (66) No. (%)
Hypersensitivity Reactions, Grade 3 & 4 ([3]; female, human, in vivo): 2 (4) No. (%)
Median time of neutrophil nadir ([3]; female, human, in vivo): 7 days
Mucositis, Grade 1 & 2 ([3]; female, human, in vivo): 31 (66) No. (%)
Mucositis, Grade 3 & 4 ([3]; female, human, in vivo): 3 (6) No. (%)
Myalgias, Grade 1 & 2 ([3]; female, human, in vivo): 43 No. (%)
Neurologic toxicity, Grade 1 & 2 ([3]; female, human, in vivo): 36 (77) No. (%)
Neurologic toxicity, Grade 3 & 4 ([3]; female, human, in vivo): 3 (6) No. (%)
Patients who continued at the starting dosage combination throughout therapy ([3]; female, human, in vivo): 45%
Patients who continued on that dose combination ([3]; female, human, in vivo): 12 patients
Patients who required red blood cell transfusions ([3]; female, human, in vivo): 55%
Patients with Mobitz I block ([3]; female, human, in vivo): 4%
Patients with Mobitz II block ([3]; female, human, in vivo): 4%
Patients with dose reduction for taxol-induced peripheral neuropathy ([3]; female, human, in vivo): 3 patients
Patients with first degree atrioventricular block ([3]; female, human, in vivo): 4%
Patients with grade 3 and 4 hematologic toxicities ([3]; female, human, in vivo): 98%
Patients with mild ototoxicity ([3]; female, human, in vivo): 11%
Patients with myalgias and arthralgias (grades 1 and 2) ([3]; female, human, in vivo): less than 50%
Time of neutrophil nadir, range ([3]; female, human, in vivo): 5 to 11 days
Vomiting, Grade 1 & 2 ([3]; female, human, in vivo): 23 No. (%)
Median nadir heart rate [3, 7]: 52 bpm
Nadir heart rate, range [3, 7]: 38-59 bpm
Patients with asymptomatic sinus bradycardia [3, 7]: 34%
Cycles associated with neutropenia [3, 8]: 24%
Cycles complicated by fever and neutropenia [3, 8]: 10%
Episodes of complete heart block ([3]; in vivo): No episodes
Patients with hypersensitivity reactions ([3]; in vivo): Two
Patients with rapid atrial fibrillation requiring digitalization ([3]; in vivo): one
Patients with supraventricular tachycardia ([3]; in vivo): two
Treatment related death due to polymicrobial sepsis ([3]; one of 47 patients): 2%
Overall objective response rate ([4]; 21/44, 95% CI: 33-63%, taxol 250 mg/m^2/21 days with G-CSF): 48%
Survival at one year ([4]; 95% confidence interval, 25-67%): 45.3%
Median survival time ([4]; Kaplan-Meier, phase II): 11.5 months
CR, % of Cohort [4, 9]: 14%
CR, No. of Patients [4, 9]: 6
MR, % of Cohort [4, 9]: 11%
MR, No. of Patients [4, 9]: 5
NR, % of Cohort [4, 9]: 25%
NR, No. of Patients [4, 9]: 11
PR, % of Cohort [4, 9]: 34%
PR, No. of Patients [4, 9]: 15
CR, No. of Patients [4, 10]: Six
MR, No. of Patients [4, 10]: five
PR, No. of Patients [4, 10]: Fifteen
Median number of cycles required to reach an objective response [4, 11]: four
Number of cycles required to reach an objective response, range [4, 11]: two to eight
Objective response rate ([4]; taxol about 250 mg/m^2/ 21 days): about 50%
Increase in the response rate versus standard dose ([4]; taxol about 250 mg/m^2/ 21 days vs standard dose): 67%
Response rate, three combined studies [5]: 30%
Taxol dosage level above which severe neurotoxicity (peripheral neuropathy) is experienced [6]: above 300 mg/m^2/ 21 days
